Our source for the mortality values is patent US12024510B2, “Pyrazolopyridine-diamides, their use as insecticide and processes for preparing the same” (PI INDUSTRIES LTD., priority 2017, dated 2024).

Holding throughout (assay type): in vivo
One test has as its system Spodoptera litura. Description: Spodoptera litura diet incorporation method. The note with it: third instar larvae, dead and moribund combined, 96 h after release. Here is the method:
(§1) Test Solutions were Prepared According to the Procedure Described Herein Below (500 PPM):
(§2) • 1. Eppendorf Vortex mixer (ThermoMixer C) and 1.5 mL Eppendorf tubes • 2. Zirconia (Zirconium-Yttrium) beads having diameter of 0.8 to 1.0 mm • 3. Microscope • 4. Beaker 100 mL • 5. Micro-pipette Reagents: • 1. Surfactant Solution • 2. De-mineralized (DM) Water • 1. Weigh 10 mg of the compound of the present invention to be tested in an Eppendorf Tube. • 2. Add 200 mg of the Surfactant Solution into the tube. • 3. Add 600 mg of Zirconia beads into the above mixture. • 4. Fix the tube in Eppendorf Vortex mixer and start vortexing at 2000 rpm. • 5. Mix on Vortex mixer for 30 minutes. After 30 minutes, observe the sample over a microscope at 400× resolution. • 6. If the Maximum particle size is more than 5 μm or average particle size is more than 2 μm or the particle size distribution is uneven, continue vortexing for another 30 minutes and again check the particle size using the microscope. Continue till the average particle size is below 2 microns. • 7. When the required particle size is achieved, add 1.0 mL DM water into the tube, close the cap, shake the tube thoroughly and transfer the contents, along with the beads, into a beaker. • 8. To rinse the tube, add another 1.0 mL of DM water into the tube, close the cap, shake well and transfer this into the same beaker. • 9. Repeat Step no. 8 one more time so that the tube is rinsed well and the compound of the present invention to be tested is transferred to the beaker. • 10. Add 16.8 mL of DM water into the beaker and stir well. • 11. The homogeneous dispersion can then be decanted into a glass vial, immediately, to separate the Zirconia beads. • 12. Immediately use this sample for biological testing. • 13. Further dilutions can be prepared by taking appropriate quantity of the aliquot of Step 10, immediately after stirring, and diluting as per requirement. The sample solution must be well mixed just before biological testing.
(§3) Diet incorporation method was used, in which semi-synthetic diet was incorporated into the test solution when the temperature is approximately 50° C. in the bioassay containers and stirred thoroughly for properly mixing and then was allowed to cool for 30 min. The solidified diet was cut into equal pieces, and then each piece was transferred in one cell in Bio-assay trays. A single third instar starved larva was released into each of these cells of bioassay trays and the tray was covered with the lid. The bio-assay trays were kept under laboratory conditions at a temperature of 25° C. and Relative Humidity of 70%. Observations on dead, moribund and live larvae were recorded at 96 h after the release of larvae. Percent mortality was calculated by combining dead and moribund larvae. The following compound numbers

In a further test the test system is Plutella xylostella. The test can be described thus: whole plant or invertebrate. The note with it: foliar, cabbage leaf dip, second instar larvae, dead and moribund combined, 72 h after release. In short, it runs like this:
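Leaf-dip bioassay: second-instar larvae, singly, fed on cabbage leaves dipped 10 s in test dispersion (bead-milled, diluted with 0.01% Triton-X to test concentration) and dried 20 min. Held at 25 °C, 70% RH; % mortality counts dead and moribund at 72 h.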

Another test relates to Helicoverpa armigera. The test can be described thus: Helicoverpa armigera diet incorporation method. The conditions noted are these: third instar larvae, dead and moribund combined, 96 h after release. Here is the method:
as §1, §2
as §3, with “which and” for “which”

On to `COc1cc(C(=O)Nc2c(C)cc3ccnn3c2C(=O)NCC(F)(F)F)n(-c2ncccc2Cl)n1` [Compound 110, 6-(1-(3-chloropyridin-2-yl)-3-methoxy-1H-pyrazole-5-carboxamido)-5-methyl-N-(2,2,2-trifluoroethyl)pyrazolo[1,5-a]pyridine-7-carboxamide], for which the mortality at 300 ppm in the test with Spodoptera litura and with Plutella xylostella was greater than 70% each time.
As to `CCCC(C)NC(=O)c1c(NC(=O)c2cc(OC)nn2-c2ncccc2Cl)c(C)cc2ccnn12` (stereo not shown) [Compound 184, 6-(1-(3-chloropyridin-2-yl)-3-methoxy-1H-pyrazole-5-carboxamido)-5-methyl-N-(pentan-2-yl)pyrazolo[1,5-a]pyridine-7-carboxamide], the mortality at 300 ppm in the test on Spodoptera litura and in the test on Plutella xylostella was greater than 70% in each case.
Take `Cc1cc2ccnn2c(C(=O)NCCC#N)c1NC(=O)c1cc(OCC(F)(F)F)nn1-c1ncccc1Cl` [Compound 47, 6-(1-(3-chloropyridin-2-yl)-3-(2,2,2-trifluoroethoxy)-1H-pyrazole-5-carboxamido)-N-(2-cyanoethyl)-5-methylpyrazolo[1,5-a]pyridine-7-carboxamide]: the mortality at 300 ppm in the test on Spodoptera litura and in the test on Plutella xylostella was greater than 70% each time.
Regarding `Cc1cc2ccnn2c(C(=O)NC2(C#N)CC2)c1NC(=O)c1cc(Br)nn1-c1ncccc1Cl` [Compound 216, 6-(3-bromo-1-(3-chloropyridin-2-yl)-1H-pyrazole-5-carboxamido)-N-(1-cyanocyclopropyl)-5-methylpyrazolo[1,5-a]pyridine-7-carboxamide], the mortality at 300 ppm with Spodoptera litura and with Plutella xylostella was greater than 70% throughout.
On to `CC(C)NC(=O)c1c(NC(=O)c2cc(C(F)(F)F)nn2-c2ncccc2Cl)c(Br)cc2ccnn12` [Compound 107, 5-bromo-6-(1-(3-chloropyridin-2-yl)-3-(trifluoromethyl)-1H-pyrazole-5-carboxamido)-N-isopropylpyrazolo[1,5-a]pyridine-7-carboxamide], for which the mortality at 300 ppm in the test on Helicoverpa armigera and in the test on Spodoptera litura was greater than 70% throughout.
Consider `Cc1cc2ccnn2c(C(=O)NCC2CCCO2)c1NC(=O)c1cc(Br)nn1-c1ncccc1Cl` (racemic) [Compound 189, rac-(R)-6-(3-bromo-1-(3-chloropyridin-2-yl)-1H-pyrazole-5-carboxamido)-5-methyl-N-((tetrahydrofuran-2-yl)methyl)pyrazolo[1,5-a]pyridine-7-carboxamide], for which the mortality at 300 ppm with Spodoptera litura and in the test on Plutella xylostella was greater than 70% in each case.
Take `Cc1cc2ccnn2c(C(=O)NC(C)C2CC2)c1NC(=O)c1cc(OCC(F)(F)F)nn1-c1ncccc1Cl` (stereo not shown) [Compound 121, 6-(1-(3-chloropyridin-2-yl)-3-(2,2,2-trifluoroethoxy)-1H-pyrazole-5-carboxamido)-N-(1-cyclopropylethyl)-5-methylpyrazolo[1,5-a]pyridine-7-carboxamide]: the mortality at 300 ppm with Helicoverpa armigera and with Spodoptera litura was greater than 70% throughout.
Turning to `Cc1cc2ccnn2c(C(=O)NC(C)C2CC2)c1NC(=O)c1cc(Cn2nnc(C(F)(F)F)n2)nn1-c1ncccc1Cl` (stereo not shown) [Compound 169, 6-(1-(3-chloropyridin-2-yl)-3-((5-(trifluoromethyl)-2H-tetrazol-2-yl)methyl)-1H-pyrazole-5-carboxamido)-N-(1-cyclopropylethyl)-5-methylpyrazolo[1,5-a]pyridine-7-carboxamide], the mortality at 300 ppm in the test with Helicoverpa armigera and in the test on Spodoptera litura was greater than 70% throughout.
As to `Cc1cc2ccnn2c(C(=O)NC(C)C2CC2)c1NC(=O)c1cc(OC2CSC2)nn1-c1ncccc1Cl` (stereo not shown) [Compound 146, 6-(1-(3-chloropyridin-2-yl)-3-(thietan-3-yloxy)-1H-pyrazole-5-carboxamido)-N-(1-cyclopropylethyl)-5-methylpyrazolo[1,5-a]pyridine-7-carboxamide], the mortality at 300 ppm in the test with Helicoverpa armigera and in the test on Spodoptera litura was greater than 70% each time.
`COCCNC(=O)c1c(NC(=O)c2cc(OCC(F)(F)F)nn2-c2ncccc2Cl)c(C)cc2ccnn12` [Compound 17, 6-(1-(3-chloropyridin-2-yl)-3-(2,2,2-trifluoroethoxy)-1H-pyrazole-5-carboxamido)-N-(2-methoxyethyl)-5-methylpyrazolo[1,5-a]pyridine-7-carboxamide]: the mortality at 300 ppm with Spodoptera litura and with Plutella xylostella was greater than 70% throughout.
`C=CCNC(=O)c1c(NC(=O)c2cc(C(F)(F)F)nn2-c2ncccc2Cl)c(C)cc2ccnn12` [Compound 64, N-allyl-6-(1-(3-chloropyridin-2-yl)-3-(trifluoromethyl)-1H-pyrazole-5-carboxamido)-5-methylpyrazolo[1,5-a]pyridine-7-carboxamide]: the mortality at 300 ppm in the test on Helicoverpa armigera and in the test on Spodoptera litura was greater than 70% in each case.
In the case of `CCCNC(=O)c1c(NC(=O)c2cc(C(F)(F)F)nn2-c2ncccc2Cl)c(C)cc2ccnn12` [Compound 92, 6-(1-(3-chloropyridin-2-yl)-3-(trifluoromethyl)-1H-pyrazole-5-carboxamido)-5-methyl-N-propylpyrazolo[1,5-a]pyridine-7-carboxamide], the mortality at 300 ppm with Helicoverpa armigera and with Spodoptera litura was greater than 70% in each case.
As to `COc1cc(C(=O)Nc2c(Cl)cc3ccnn3c2C(=O)NC(C)(C)C)n(-c2ncccc2Cl)n1` [Compound 136, N-(tert-butyl)-5-chloro-6-(1-(3-chloropyridin-2-yl)-3-methoxy-1H-pyrazole-5-carboxamido)pyrazolo[1,5-a]pyridine-7-carboxamide], the mortality at 300 ppm in the test on Helicoverpa armigera and with Spodoptera litura was greater than 70% each time.
Take `Cc1cc2ccnn2c(C(=O)NC(C)CCC(C)C)c1NC(=O)c1cc(Br)nn1-c1ncccc1Cl` (stereo not shown) [Compound 188, 6-(3-bromo-1-(3-chloropyridin-2-yl)-1H-pyrazole-5-carboxamido)-5-methyl-N-(5-methylhexan-2-yl)pyrazolo[1,5-a]pyridine-7-carboxamide]: the mortality at 300 ppm with Spodoptera litura and in the test with Plutella xylostella was greater than 70% throughout.
For `CCNC(=O)c1c(NC(=O)c2cc(Br)nn2-c2ncccc2Cl)c(Cl)cc2ccnn12` [Compound 142, 6-(3-bromo-1-(3-chloropyridin-2-yl)-1H-pyrazole-5-carboxamido)-5-chloro-N-ethylpyrazolo[1,5-a]pyridine-7-carboxamide], the mortality at 300 ppm in the test on Spodoptera litura and with Plutella xylostella was greater than 70% each time.
In the case of `CCONC(=O)c1c(NC(=O)c2cc(Br)nn2-c2ncccc2Cl)c(C)cc2ccnn12` [Compound 106, 6-(3-bromo-1-(3-chloropyridin-2-yl)-1H-pyrazole-5-carboxamido)-N-ethoxy-5-methylpyrazolo[1,5-a]pyridine-7-carboxamide], the mortality at 300 ppm with Spodoptera litura and in the test on Plutella xylostella was greater than 70% each time.
As for `Cc1cc2ccnn2c(C(=O)NC2CC2)c1NC(=O)c1cc(Cn2nnc(C(F)(F)F)n2)nn1-c1ncccc1Cl` [Compound 168, 6-(1-(3-chloropyridin-2-yl)-3-((5-(trifluoromethyl)-2H-tetrazol-2-yl)methyl)-1H-pyrazole-5-carboxamido)-N-cyclopropyl-5-methylpyrazolo[1,5-a]pyridine-7-carboxamide], the mortality at 300 ppm in the test on Helicoverpa armigera and with Spodoptera litura was greater than 70% in each case.
